# Molecular target: LAT1 (Homo sapiens, UniProt Q01650)
# Experiment: [3H]-gabapentin uptake competition assay in LN229 cells
# Format: cell-based
# Conditions: read-out: IC50, [3H]-gabapentin uptake competition
# Sequence of LAT1 (Q01650 whole entry): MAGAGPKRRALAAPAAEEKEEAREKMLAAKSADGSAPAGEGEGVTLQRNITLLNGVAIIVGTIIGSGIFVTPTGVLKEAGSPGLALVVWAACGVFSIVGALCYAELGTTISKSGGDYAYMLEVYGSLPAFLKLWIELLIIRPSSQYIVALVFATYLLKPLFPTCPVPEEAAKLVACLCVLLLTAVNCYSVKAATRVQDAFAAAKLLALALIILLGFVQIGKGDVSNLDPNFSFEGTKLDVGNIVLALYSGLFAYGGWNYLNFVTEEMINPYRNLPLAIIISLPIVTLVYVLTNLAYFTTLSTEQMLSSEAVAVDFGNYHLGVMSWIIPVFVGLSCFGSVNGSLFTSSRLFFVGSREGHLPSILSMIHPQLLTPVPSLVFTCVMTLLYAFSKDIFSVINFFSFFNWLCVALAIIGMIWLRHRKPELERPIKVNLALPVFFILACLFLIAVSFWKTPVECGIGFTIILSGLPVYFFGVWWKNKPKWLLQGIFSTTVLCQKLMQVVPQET
# Sequence of LAT1 (P08195 102-630 partner): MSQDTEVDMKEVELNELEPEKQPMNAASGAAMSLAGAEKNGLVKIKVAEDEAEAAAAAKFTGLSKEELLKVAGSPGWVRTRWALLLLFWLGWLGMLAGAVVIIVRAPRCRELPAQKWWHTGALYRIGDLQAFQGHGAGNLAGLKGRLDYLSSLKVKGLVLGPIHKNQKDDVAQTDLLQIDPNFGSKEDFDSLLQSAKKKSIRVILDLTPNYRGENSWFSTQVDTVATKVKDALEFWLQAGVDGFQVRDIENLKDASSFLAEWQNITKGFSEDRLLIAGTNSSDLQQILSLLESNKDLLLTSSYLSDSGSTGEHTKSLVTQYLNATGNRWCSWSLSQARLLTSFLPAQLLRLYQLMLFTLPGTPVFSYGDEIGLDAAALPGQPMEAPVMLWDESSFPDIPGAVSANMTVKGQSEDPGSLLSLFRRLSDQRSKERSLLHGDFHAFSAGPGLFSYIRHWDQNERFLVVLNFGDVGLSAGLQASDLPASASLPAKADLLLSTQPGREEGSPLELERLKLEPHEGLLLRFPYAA
compound,measurement,value
Nc1cc(COc2c(Cl)cc(C[C@H](N)C(=O)O)cc2Cl)c2oc(-c3ccccc3)nc2c1 [JPH203],IC50,0.029 µM

# Source: paper PMC8251711 (Angewandte Chemie (International Ed. in English), 2021)
